# Test results reported in patent publication US20170136102A1, “PHAGE-DERIVED COMPOSITIONS FOR IMPROVED MYC[…]” (priority 2014, published 2017).
# Where two headings read alike, the source gives them in different places.
# What was measured:
# Format in all cases: cell-based
# M. smegmatis [1] = assay: Broth checkerboard MIC, synergy of LysB with anti-TB drugs; conditions: for MIC: Mycolicibacterium smegmatis
# M. bovis BCG = assay: microbe, parasite or virus in culture; conditions: for FIC index: M. bovis BCG (Dubos), drug in combination with LysB, <0.5 indicates synergy; for MIC: Mycobacterium tuberculosis variant bovis BCG, BCG
# M. smegmatis [2] = tested on: M. smegmatis
SMILES,FIC index (M. smegmatis [1]),MIC (M. smegmatis [1]) [µg/mL],FIC index (M. bovis BCG),MIC (M. bovis BCG) [µg/mL],"Log10 CFU reduction (M. smegmatis [2]; M. smegmatis, 24 hrs, Ethambutol group) [Log10 CFU]",Log10 CFU reduction (M. smegmatis [2]) [Log10 CFU],"Log10 CFU reduction (M. smegmatis [2]; M. smegmatis, 24 hrs, INH group) [Log10 CFU]"
CC[C@@H](CO)NCCN[C@@H](CC)CO [Ethambutol],0.06,2,0.15,16,<1,–,–
CO[C@H]1/C=C/O[C@@]2(C)Oc3c(C)c(O)c4c(O)c(c(/C=N/N5CCN(C)CC5)c(O)c4c3C2=O)NC(=O)/C(C)=C\C=C\[C@H](C)[C@H](O)[C@@H](C)[C@@H](O)[C@@H](C)[C@H](OC(C)=O)[C@@H]1C [Rifampicin],0.06,4,0.37,0.004,–,<1,–
"NNC(=O)c1ccncc1 [INH, Isoniazid]",0.13,8,0.47,0.03,–,–,<1
